Experimental data reported in PubChem BioAssay AID248 (DTP/NCI, 2004).
Values joined by “and” are separate entries in the source; they are usually repeats but may differ in a detail not shown here. Equal values may be shown once. Toxic doses and inconclusive results are not listed. Cut-off read from the data, not from the text of the source: active = T/C of 150% or more; inactive = T/C below 125%.

System: L1210 leukemia ip in BDF1 mice, survival T/C
Test: NCI In Vivo Anticancer Drug Screen. Data for tumor model L1210 Leukemia (intraperitoneal) in B6D2F1 (BDF1) mice
Settings: endpoint: mean survival time, higher = longer survival
Method in brief: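 Value reflects the ratio of survival in compound-treated mice to survival in vehicle-treated controls, with both groups carrying the same transplanted tumor.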

[1] = dose: 100.0 mg/kg/injection, schedule: Q01DX009 (ip), vehicle: Klucel (hydroxypropylcellulose) (HPC)
[2] = dose: 100.0 mg/kg/injection, schedule: Q04DX003 (ip), vehicle: Klucel (hydroxypropylcellulose) (HPC)
[3] = dose: 200.0 mg/kg/injection, schedule: Q04DX003 (ip), vehicle: Klucel (hydroxypropylcellulose) (HPC)
[4] = dose: 100.0 mg/kg/injection, schedule: Q01DX009 (ip), vehicle: saline
[5] = dose: 200.0 mg/kg/injection, schedule: Q01DX009 (ip), vehicle: saline
[6] = dose: 400.0 mg/kg/injection, schedule: Q01DX009 (ip), vehicle: saline
[7] = dose: 50.0 mg/kg/injection, schedule: Q01DX009 (ip), vehicle: Klucel (hydroxypropylcellulose) (HPC)
[8] = dose: 100.0 mg/kg/injection, schedule: Q04DX003 (ip), vehicle: saline
[9] = dose: 200.0 mg/kg/injection, schedule: Q04DX003 (ip), vehicle: saline
[10] = dose: 400.0 mg/kg/injection, schedule: Q04DX003 (ip), vehicle: saline
[11] = dose: 100.0 mg/kg/injection, schedule: Q01DX009 (ip), vehicle: saline with Tween-80
[12] = dose: 100.0 mg/kg/injection, schedule: Q04DX003 (ip), vehicle: saline with Tween-80
[13] = dose: 200.0 mg/kg/injection, schedule: Q01DX009 (ip), vehicle: saline with Tween-80
[14] = dose: 200.0 mg/kg/injection, schedule: Q04DX003 (ip), vehicle: saline with Tween-80
[15] = dose: 400.0 mg/kg/injection, schedule: Q01DX009 (ip), vehicle: saline with Tween-80
[16] = dose: 400.0 mg/kg/injection, schedule: Q04DX003 (ip), vehicle: saline with Tween-80
[17] = dose: 100.0 mg/kg/injection, schedule: Q01DX001 (ip), vehicle: saline
[18] = dose: 200.0 mg/kg/injection, schedule: Q01DX001 (ip), vehicle: saline

Measured: T/C

CCC(C)C1(C)C(=O)N(C)C(=S)N(C)C1=O (stereo not given)
inactive: dose: 5.0 mg/kg/injection, schedule: Q01DX001 (ip), vehicle: saline 95 % of control | dose: 10.0 mg/kg/injection, schedule: Q01DX001 (ip), vehicle: saline 91 % of control | dose: 20.0 mg/kg/injection, schedule: Q01DX001 (ip), vehicle: saline 96 % of control | dose: 40.0 mg/kg/injection, schedule: Q01DX001 (ip), vehicle: saline 89 % of control

CCOC(=O)/C(C#N)=C(\CCc1ccccc1)CC(C)C
inactive: dose: 100.0 mg/kg/injection, schedule: Q04DX002 (ip), vehicle: saline with Tween-80 101 % of control | dose: 200.0 mg/kg/injection, schedule: Q04DX002 (ip), vehicle: saline with Tween-80 101 % of control | dose: 400.0 mg/kg/injection, schedule: Q04DX002 (ip), vehicle: saline with Tween-80 104 % of control

COC(=O)CCC#CC#CCCC(=O)OC
inactive: [1] 97 % of control | [2] 90 % of control | dose: 200.0 mg/kg/injection, schedule: Q01DX009 (ip), vehicle: Klucel (hydroxypropylcellulose) (HPC) 102 % of control | [3] 95 % of control | dose: 400.0 mg/kg/injection, schedule: Q01DX009 (ip), vehicle: Klucel (hydroxypropylcellulose) (HPC) 108 % of control | dose: 400.0 mg/kg/injection, schedule: Q04DX003 (ip), vehicle: Klucel (hydroxypropylcellulose) (HPC) 90 % of control

COc1ccc(N=Cc2ccccc2O)cc1.[Co]
inactive: dose: 100.0 mg/kg/injection, schedule: Q01DX001 (ip), vehicle: other 96 % of control | dose: 200.0 mg/kg/injection, schedule: Q01DX001 (ip), vehicle: other 102 % of control | dose: 400.0 mg/kg/injection, schedule: Q01DX001 (ip), vehicle: other 105 % of control

Cc1cc([N+](=O)[O-])cc([N+](=O)[O-])c1Cl
inactive: [7] 103 % of control | [1] 100 % of control | [2] 98 % of control | [3] 103 % of control

O=C(CSc1ccccc1)NCc1cnccn1
inactive: [4] 103 % of control | [8] 92 % of control | [5] 102 % of control | [9] 105 % of control | [10] 105 % of control

CC(=O)C(C(C)=O)C(=O)c1ccc2ccccc2c1
inactive: dose: 222.0 mg/kg/injection, schedule: Q01DX Z (ip), vehicle: methylcellulose (MC) 107 % of control | dose: 333.0 mg/kg/injection, schedule: Q01DX Z (ip), vehicle: methylcellulose (MC) 94 % of control | dose: 500.0 mg/kg/injection, schedule: Q01DX Z (ip), vehicle: methylcellulose (MC) 96 % of control

Cc1c[n+]([O-])ccc1[N+](=O)[O-]
inactive: dose: 25.0 mg/kg/injection, schedule: Q01DX009 (ip), vehicle: saline 90 % of control | dose: 25.0 mg/kg/injection, schedule: Q04DX003 (ip), vehicle: saline 105 % of control | dose: 50.0 mg/kg/injection, schedule: Q01DX009 (ip), vehicle: saline 90 % of control | dose: 50.0 mg/kg/injection, schedule: Q04DX003 (ip), vehicle: saline 97 % of control | [4] 88 % of control | [8] 90 % of control and 91 % of control

Cc1c(C)c2c(c(C)c1O)CC(CC(=O)CO)CO2 (stereo not given)
inactive: dose: 100.0 mg/kg/injection, schedule: Q01DX001 (ip), vehicle: saline with Tween-80 97 % of control | dose: 200.0 mg/kg/injection, schedule: Q01DX001 (ip), vehicle: saline with Tween-80 95 % of control | dose: 400.0 mg/kg/injection, schedule: Q01DX001 (ip), vehicle: saline with Tween-80 97 % of control

CN1CCN(C(c2ccccc2)c2ccccc2)CC1
inactive: dose: 3.12 mg/kg/injection, schedule: Q01DX009 (ip), vehicle: Klucel (hydroxypropylcellulose) (HPC) 97 % of control | dose: 6.25 mg/kg/injection, schedule: Q01DX009 (ip), vehicle: Klucel (hydroxypropylcellulose) (HPC) 102 % of control | dose: 12.5 mg/kg/injection, schedule: Q01DX009 (ip), vehicle: Klucel (hydroxypropylcellulose) (HPC) 97 % of control | dose: 25.0 mg/kg/injection, schedule: Q01DX009 (ip), vehicle: Klucel (hydroxypropylcellulose) (HPC) 108 % of control | dose: 25.0 mg/kg/injection, schedule: Q04DX003 (ip), vehicle: Klucel (hydroxypropylcellulose) (HPC) 97 % of control | [7] 103 % of control | dose: 50.0 mg/kg/injection, schedule: Q04DX003 (ip), vehicle: Klucel (hydroxypropylcellulose) (HPC) 92 % of control

Oc1ccc(N=Cc2ccc(C=Nc3ccc(O)cc3)cc2)cc1
inactive: [11] 106 % of control | [12] 112 % of control | [13] 100 % of control | [14] 100 % of control | [15] 105 % of control | [16] 100 % of control

CC=NC(C[S-])C(=O)O.CC=NC(C[S-])C(=O)O.[Fe+2] (stereo not given)
inactive: [11] 92 % of control | [12] 94 % of control | [13] 91 % of control | [14] 93 % of control | [15] 87 % of control | [16] 88 % of control

O=S(=O)(Cc1ncc2cnccn12)c1ccccc1
inactive: [8] 95 % of control | [9] 103 % of control | [10] 104 % of control

CCOC(=O)C1(C(=O)OCC)CCC1
inactive: [17] 103 % of control | [18] 94 % of control

CCS(=O)(=O)CC(C)O (stereo not given)
inactive: [4] 90 % of control | dose: 100.0 mg/kg/injection, schedule: Q04DX002 (ip), vehicle: saline 101 % of control | [5] 93 % of control | [6] 104 % of control | dose: 400.0 mg/kg/injection, schedule: Q04DX002 (ip), vehicle: saline 108 % of control

COc1ccc(-c2ccc(CCNC(C)=O)cc2)cc1Cl
inactive: dose: 100.0 mg/kg/injection, schedule: Q01DX001 (ip), vehicle: carboxymethylcellulose (CMC) 94 % of control | dose: 200.0 mg/kg/injection, schedule: Q01DX001 (ip), vehicle: carboxymethylcellulose (CMC) 86 % of control | dose: 400.0 mg/kg/injection, schedule: Q01DX001 (ip), vehicle: carboxymethylcellulose (CMC) 89 % of control

CCOC(=O)c1ccc(NCC(C)(C)N)cc1
inactive: [8] 97 % of control

CC1=COC(C)(C(=O)O)CC1 (stereo not given)
inactive: dose: 55.0 mg/kg/injection, schedule: Q01DX Z (ip), vehicle: methylcellulose (MC) 100 % of control | dose: 83.0 mg/kg/injection, schedule: Q01DX Z (ip), vehicle: methylcellulose (MC) 86 % of control | dose: 125.0 mg/kg/injection, schedule: Q01DX Z (ip), vehicle: methylcellulose (MC) 102 % of control

O=C1COc2ccccc21
inactive: dose: 50.0 mg/kg/injection, schedule: Q01DX001 (ip), vehicle: saline 97 % of control | [17] 100 % of control | [18] 100 % of control | dose: 400.0 mg/kg/injection, schedule: Q01DX001 (ip), vehicle: saline 100 % of control
